Test results reported in PMC5458644 (Neoplasia (New York, N.Y.), 2017).

What was measured:
A2aR = details: alone or in combination with anti-PD-1 and anti-CTLA4; cited from earlier work
B16-CD73+ tumor cells = test: Experimental lung metastasis model, B16-CD73+ cells i.v.; type: in vivo, C57Bl/6 mice; details: 15 mg/kg/day oral gavage, daily for 15 days, vs vehicle, P < .05
MCA205 tumor cells = test: Experimental lung metastasis model, MCA205 cells i.v.; type: in vivo, C57Bl/6 mice; details: 30 mg/kg/day oral gavage, daily for 7 days, vs vehicle, P < .05
[1] = test system: human tumor-infiltrating lymphocytes (TILs); test: Ex vivo assay of disaggregated resected NSCLC tumors, γ-interferon ELISA; type: cell-based; details: tumors of Figure 5 A and B; 3 days culture
[2] = Secondary pharmacology panel; details: 10 μM initial screen; apart from adenosine receptors; data not shown

| SMILES | tumor burden in vivo (A2aR) | tumor burden (lung nodules, lung weight) (B16-CD73+ tumor cells) | tumor burden (lung nodules, lung weight) (MCA205 tumor cells) | TIL function (γ-interferon), combination of PBF-509 with anti-PD-L1 [1] | effect in secondary pharmacology profile [2] |
| --- | --- | --- | --- | --- | --- |
| Nc1nc2c(cnn2CCc2ccccc2)c2nc(-c3ccco3)nn12 [SCH58261] | decreased tumor burden |  |  |  |  |
| Nc1nc(-n2cccn2)nc(-n2cccn2)c1Br [PBF-509] |  | significantly reduced tumor burden | significantly reduced tumor burden | improved TIL function in an additive fashion | did not show any relevant effect |
| Nc1nc(NCCc2ccc(O)cc2)nc2nc(-c3ccco3)nn12 [ZM241385] | decreased tumor burden |  |  |  |  |
